These results are taken from US9539236B2, “Pharmaceutical composition for preventing or treating cancer” (Medicinal Bioconvergence Research Center, priority 2013, dated 2017).

Assay type in all cases: cell-based
One data set deals with AIMP2-DX2 mRNA. The data set is described as follows: RT-PCR of AIMP2-DX2 mRNA level in H460 cells treated with C11. As to conditions: different concentrations of C11, RT-PCR, FIG. 1. Here is the method: (§1) The present inventors conducted western blotting and RT-PCR using AIMP2 antibody and AIMP2-DX2 antibody (purchased from Neomics (Korea)) to verify the effect of the compound of chemical formula 1 on AIMP2-DX2 activity.
H460 cells were treated with C11 with different concentrations, and then total-RNA was isolated according to the protocol of the manufacturer (Qiagen). The cells were collected, and mixed with 350 μl of a lysis buffer, which was then homogenized using a homogenizer or a syringe. After 350 μl of 70% ethanol was added, the lysate was shook above and below several times, and loaded on the column, followed by centrifuge at 13,000 RPM for 15 seconds. The column was washed twice with a washing buffer, and then RNA was eluted with 40 μl of RNase-free DW.
For reverse transcription, 1 μg of the isolated RNA was used as AIMP2-specific primers (SEQ ID NO: 2 and SEQ ID NO: 3) and DX2-specific primers (SEQ ID NO: 4 and SEQ ID NO: 5). After the reverse transcription, the product was diluted with 3-fold DW, and then 1 μl was used for 30 μl of PCR reaction including 0.5 μl dNTP (each 2.5 mM), 0.5 μl of the AIMP2 specific primer set (SEQ ID NO: 2 and SEQ ID NO: 3) and DX2 specific primers (SEQ ID NO: 4 and SEQ ID NO: 5) (each 10 pM), 1.5 μl of DMSO, and 0.1 μl of Taq polymerase (5 U/μl).

Data set [1] has as its system WI-26 human diploid fibroblast cell line from embryonic lung tissue. Briefly: MTT assay, cytotoxicity on normal cell line WI-26. Conditions: WI-26 cells, compared with a control, FIG. 4. Here is the method:
In order to evaluate cytotoxicity of C11 on a normal cell line, WI-26, which is a human diploid fibroblast cell line from embryonic lung tissue, was treated with C11, and then cell viability was measured by MTT assay and compared with a control.

In data set [2] the test system is lung cancer cell line NCI-H460. The data set is described as follows: MTT assay, cytotoxicity on lung cancer cells (H460). As to conditions: NCI-H460, serum free RPMI, 0.04 uM, 0.4 uM, 4 uM and 40 uM, 48 hours, FIG. 3. Here is the method: A lung cancer cell line NCI-H460 was cultured in an RPMI medium (HyQ RPMI-1640, Hyclone) containing 10% fetal bovine serum and 1% penicillin/streptomycin for 48 hours, and then transferred to a 96-well plate. After 12 hours, the medium was exchanged with the serum free RPMI medium, and then was treated with the compound of chemical formula 1 with 0.04 uM, 0.4 uM, 4 uM, and 40 uM. After 48 hours, MTT assay was conducted.
In general terms: Tetrazolium dyes change colour on reduction, which living cells bring about.

Another data set concerns AIMP2. Briefly: Western blotting of AIMP2 protein expression in H460 cells. As to conditions: FIG. 2. As for the experimental part:
as §1
(§2) A western blotting test was conducted to investigate the effect of C11 on the AIMP2-DX2 protein level.
(§3) H460 cells were treated with the compound, C11, for a predetermined period of time, and the protein was extracted from the cells using a RIPA buffer containing protease. The protein was isolated using 10 to 12% SDS-PAGE, and then immunoblotting was conducted using an ECL system as a specific antibody.
A general note: Immunoblotting shows a protein as a band on a membrane.

A further data set addresses T1, AIMP2-DX2 (Homo sapiens, UniProt Q13155).
T1 construct: the protein was extracted from the cells using a RIPA buffer containing protease; endogenous in cells; host or cells: H460
T1 sequence (Q13155 1-251 isoform Q13155-2): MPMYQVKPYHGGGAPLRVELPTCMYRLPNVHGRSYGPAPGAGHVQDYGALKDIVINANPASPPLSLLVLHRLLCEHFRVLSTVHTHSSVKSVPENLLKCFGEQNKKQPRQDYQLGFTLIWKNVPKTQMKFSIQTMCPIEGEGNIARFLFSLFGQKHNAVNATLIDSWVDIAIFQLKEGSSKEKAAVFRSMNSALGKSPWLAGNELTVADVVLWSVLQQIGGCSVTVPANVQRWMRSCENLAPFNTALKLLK
The data set is described as follows: Western blotting of AIMP2-DX2 protein level in H460 cells. Conditions: FIG. 2. As for the experimental part: as §1, §2, §3

For the molecule `Cc1ccc(S(=O)(=O)N[C@@H](CC(C)C)C(=O)N2CCOCCOCCOCC2)cc1` [C11, 1,4,7-Trioxa-10-azacyclododecane, 10-[4-methyl-2-[[(4-methylphenyl)sulfonyl]amino]-1-oxopentyl]], the “effect on the mRNA level of AIMP2-DX2” value in the data set on AIMP2-DX2 mRNA is listed as “no effect”. Besides, in data set [1], the “cytotoxicity on normal cells (cell viability, MTT)” value is reported as “cytotoxicity was not observed”. Besides, in data set [2], the “lung cancer cell line viability (MTT)” value was “killed by the compound, C11, in a concentration dependent manner”. Also, the “effect on the AIMP2 protein expression” value with AIMP2 is “no effect”. The “effect on the AIMP2-DX2 protein level” value on AIMP2-DX2 is reported as “reduced the AIMP2-DX2 protein level in a concentration dependent manner”.
